Assay results from patent publication US12433908B2, “Use of nicotinamide riboside, nicotinic acid riboside, and nicotinamide mononucleotide, reduced nicotinyl compounds, and nicotinoyl compound derivatives in infant formula for healthy development” (ChromaDex, Inc., priority 2016, dated 2025).

How the values were obtained:
milk proteins = assay: WaterLOGSY NMR direct binding of 15N-labeled NR to milk proteins; settings: increasing additions of milk
From the text: Whey protein fraction and casein protein have been identified as leading candidates to bind directly to and stabilize nicotinamide riboside (NR, I) in milk. The addition of these proteins in particular (either alone or in combination with other proteins) in order to stabilize nicotinamide riboside (NR, I) in liquid constitutes another embodiment of a method of delivery of the present invention. […] In this experiment, Water-Ligand Observed via Gradient Spectroscopy (WaterLOGSY NMR) was used to detect direct binding of stable, isotope-labeled (^15N) nicotinamide riboside (NR, I) to milk proteins. This is visualized as a concentration-dependent shift in the nicotinamide riboside (NR, I) spectra with increasing additions of milk. The concentric shapes shifts from left to right are the results of addition of no milk, 150 mL of milk, and […] of milk, respectively.

[1] = CBC analysis of piglets given NR solution; type: in vivo, piglets (Yorkshire/Hampshire crossbred)
From the text: Sixteen (n=16) Yorkshire/Hampshire crossbred piglets were obtained from the University of California, Davis Swine Teaching and Research Center and received on lactation day (“LD”) 14. Prior to arrive, the piglets were processed by the suppler between 1-3 days of age by administration of iron and an antibiotic ([…] for swine) as is common practice at the University of California, Davis Swine Facility. It is not common practice at the University of California, Davis Swine Facility to give a second dose of iron and antibiotics unless it becomes necessary. The piglets were from two litters (litters 15 and 17), weaned at 17 days of age, and randomly placed into one of two groups balanced for litter, sex, and weight. The animals were not acclimated to the facility at arrival and were subsequently acclimated to the test diet administration system. The piglets were weaned into a temperature-controlled room (approximately 27-29° C.) that contained 10 adjacent pens. The piglets were group-housed in the nursery room at the Swine Facility, which is an enclosed room with access restricted to trained personnel. The two groups were separated by one pen containing piglets of similar age. Each morning enough nicotinamide riboside (NR, I) in water solution was prepared for that day's dose administration according to the dose preparation protocol. At least 5 mL of prepared dose was reserved and immediately frozen after preparation each day for analysis of nicotinamide riboside (NR, I) for the purpose of confirming stability of the dose material. The doses were stored at refrigeration temperature while not in use. Nicotinamide riboside (NR, I) was dosed once per day in the morning and at the same time each day. Piglets in the control group received the same volume of plain water and were dosed on the same schedule. Starting on Day 1, animals in the nicotinamide riboside (NR, I) group were dosed once daily (in the morning) with 277 mg nicotinamide riboside (NR, I) per pig resuspended in water for seven days. After one week, animals were dosed once daily with 342 mg nicotinamide riboside (NR, I) per pig delivered in 2.5 mL for seven days. For Days 1 and 2, the nicotinamide riboside (NR, I) solution was prepared by resuspending 2770 mg nicotinamide riboside (NR, I) in 50 mL water, and 5 mL of this solution was delivered to each pig by squirting it into the back of the mouth using a 10 mL syringe with a piece of tubing attached to the end. To reduce the volume to more efficiently deliver the nicotinamide riboside (NR, I) solution, the 2770 mg was resuspended in 25 mL water and 2.5 mL of the solution was squirted into the back of the mouth of each pig using a 3 mL syringe for Days 3-7. For Days 8-14, 3420 mg nicotinamide riboside (NR, I) was resuspended in 25 mL water and 2.5 mL of this solution was delivered to each pig. Each day prior to dosing, 2.5 mL of the nicotinamide riboside (NR, I) (5 mL on Days 1 and 2) were placed into a separate tube and frozen. Blood was collected from each pig via jugular venipuncture on Days 1, 8, and 14. In each instance, blood was collected prior to dosing with nicotinamide riboside (NR, I). On Day 1, the sow was removed from the piglets for approximately three hours prior to sample collection. On Days 8 and 14, feed was removed from the animals' pens 12 hours prior to sample collection. Blood was collected into purple-top vacutainers for CBC analysis and into red-top vacutainers for blood chemistry analysis. CBC analysis was performed at IDEXX Laboratories in West Sacramento, California using the Sysmex XT-iV Vet Hematology Autoanalyzer (Sysmex America Inc., Lincolnshire, Illinois). Red-top tubes were spun to collect serum and the serum frozen. Frozen aliquots (500 μL) were submitted to the University of California, Davis Veterinary medicine Teaching Hospital Clinical Diagnostic Laboratory for Blood Chemistry Analysis using the Cobas 6000 C501 Clinical Chemistry Analyzer (Roche Diagnostics, Indianapolis, IN). […]

[2] = Wk 1, 277 mg/pig once daily oral
[3] = Wk 2, 342 mg/pig once daily oral Days 8-14

direct binding to milk proteins (milk proteins): binds to proteins in milk | Basophils, % ([1]; Baseline, before dosing): 0.57% | Basophils, count ([1]; Baseline, before dosing): 60 cells/μL | Eosinophils, % ([1]; Baseline, before dosing): 1.11% | Eosinophils, count ([1]; Baseline, before dosing): 108 cells/μL | HCT ([1]; Baseline, before dosing): 29.9% | HGB ([1]; Baseline, before dosing): 10.4 g/dL | Lymphocytes, % ([1]; Baseline, before dosing): 65.8% | Lymphocytes, count ([1]; Baseline, before dosing): 6.48 ×10^3 cells/μL | MCH ([1]; Baseline, before dosing): 16.0 pg | MCHC ([1]; Baseline, before dosing): 34.3 g/dL | MCV ([1]; Baseline, before dosing): 46.2 fL | Monocytes, % ([1]; Baseline, before dosing): 6.17% | Monocytes, count ([1]; Baseline, before dosing): 596 cells/μL | Neutrophil/Lymphocyte ([1]; Baseline, before dosing): 0.41 | Neutrophils, % ([1]; Baseline, before dosing): 26.3% | Neutrophils, count ([1]; Baseline, before dosing): 2.47 ×10^3 cells/μL | RBC ([1]; Baseline, before dosing): 6.45 M/μL | WBC ([1]; Baseline, before dosing): 9.7 ×10^3 cells/μL | Basophils, % [1, 2]: 0.49% | Basophils, count [1, 2]: 68 cells/μL | Eosinophils, % [1, 2]: 1.52% | Eosinophils, count [1, 2]: 213 cells/μL | HCT [1, 2]: 27.3% | HGB [1, 2]: 9.4 g/dL | Lymphocytes, % [1, 2]: 51.0% | Lymphocytes, count [1, 2]: 6.34 ×10^3 cells/μL | MCH [1, 2]: 15.4 pg | MCHC [1, 2]: 34.7 g/dL | MCV [1, 2]: 44.7 fL | Monocytes, % [1, 2]: 6.01% | Monocytes, count [1, 2]: 803 cells/μL | Neutrophil/Lymphocyte [1, 2]: 0.85 | Neutrophils, % [1, 2]: 40.9% | Neutrophils, count [1, 2]: 5.41 ×10^3 cells/μL | RBC [1, 2]: 6.06 M/μL | WBC [1, 2]: 12.8 ×10^3 cells/μL | Basophils, % [1, 3]: 0.30% | Basophils, count [1, 3]: 61 cells/μL | Eosinophils, % [1, 3]: 1.07% | Eosinophils, count [1, 3]: 179 cells/μL | HCT [1, 3]: 26% | HGB [1, 3]: 9.4 g/dL | Lymphocytes, % [1, 3]: 54.9% | Lymphocytes, count [1, 3]: 10.31 ×10^3 cells/μL | MCH [1, 3]: 15.5 pg | MCHC [1, 3]: 35.2 g/dL | MCV [1, 3]: 44.2 fL | Monocytes, % [1, 3]: 6.80% | Monocytes, count [1, 3]: 1336 cells/μL | Neutrophil/Lymphocyte [1, 3]: 0.73 | Neutrophils, % [1, 3]: 36.9% | Neutrophils, count [1, 3]: 7.59 ×10^3 cells/μL | RBC [1, 3]: 6.11 M/μL | WBC [1, 3]: 19.5 ×10^3 cells/μL | CBC and serum chemistries, NR vs. control ([1]; baseline and weekly for the 2-week intervention): no statistically significant differences
SMILES: NC(=O)c1ccc[n+]([C@@H]2O[C@H](CO)[C@@H](O)[C@H]2O)c1 [NR, Nicotinamide riboside]
